Results published in PubChem BioAssay (NCI).
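GI50 is the concentration that inhibits growth by half. TGI marks complete inhibition of growth.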

Key:
Assay in all cases: growth of human tumour cells (NCI), 384-well format
CCRF-CEM leukemia = system: CCRF-CEM leukemia
A549 NSCLC = system: A549 NSCLC
MDA-MB-468 breast = system: MDA-MB-468 breast
SN12C renal = system: SN12C renal
NCI-H522 lung = system: NCI-H522 lung
HCC-2998 colon = system: HCC-2998 colon
TK-10 renal = system: TK-10 renal
HOP-62 NSCLC = system: HOP-62 NSCLC
ACHN renal = system: ACHN renal
BT-549 breast = system: BT-549 breast
LOX IMVI melanoma = system: LOX IMVI melanoma
M14 melanoma = system: M14 melanoma
KM12 colon = system: KM12 colon
HCT-116 colon = system: HCT-116 colon
MCF7 breast = system: MCF7 breast
SK-OV-3 ovarian = system: SK-OV-3 ovarian
OVCAR-3 ovarian = system: OVCAR-3 ovarian
SF-268 CNS = system: SF-268 CNS
NCI-H460 NSCLC = system: NCI-H460 NSCLC
U251 glioblastoma = system: U251 glioblastoma
SK-MEL-5 melanoma = system: SK-MEL-5 melanoma
A498 renal = system: A498 renal
NCI-H322M lung = system: NCI-H322M lung
RXF 393 renal = system: RXF 393 renal
HT29 colon = system: HT29 colon
NCI-H23 lung = system: NCI-H23 lung
UACC-62 melanoma = system: UACC-62 melanoma
SW-620 colon = system: SW-620 colon
PC-3 prostate = system: PC-3 prostate
NCI-H226 lung = system: NCI-H226 lung
MALME-3M melanoma = system: MALME-3M melanoma
RPMI-8226 leukemia = system: RPMI-8226 leukemia
HL-60(TB) leukemia = system: HL-60(TB) leukemia
CAKI-1 renal = system: CAKI-1 renal
OVCAR-4 ovarian = system: OVCAR-4 ovarian
UACC-257 melanoma = system: UACC-257 melanoma
MOLT-4 leukemia = system: MOLT-4 leukemia
NCI/ADR-RES ovarian = system: NCI/ADR-RES ovarian
SF-295 CNS = system: SF-295 CNS
MDA-MB-435 melanoma = system: MDA-MB-435 melanoma
IGROV1 ovarian = system: IGROV1 ovarian
SF-539 CNS = system: SF-539 CNS
DU-145 prostate = system: DU-145 prostate
SK-MEL-2 melanoma = system: SK-MEL-2 melanoma
HS 578T breast = system: HS 578T breast
COLO 205 colon = system: COLO 205 colon
786-0 renal = system: 786-0 renal
HOP-92 NSCLC = system: HOP-92 NSCLC
OVCAR-8 ovarian = system: OVCAR-8 ovarian
SNB-19 CNS = system: SNB-19 CNS
EKVX NSCLC = system: EKVX NSCLC
SK-MEL-28 melanoma = system: SK-MEL-28 melanoma
HCT-15 colon = system: HCT-15 colon
SNB-75 CNS = system: SNB-75 CNS

Structure (SMILES): O=C1c2ccccc2C(=O)C(Cl)C1Cl (stereo not drawn)
- GI50 (CCRF-CEM leukemia): 1.49 µM
- TGI (CCRF-CEM leukemia): 2.84 µM
- GI50 (A549 NSCLC): 15.1 µM
- TGI (A549 NSCLC): 28.7 µM
- GI50 (MDA-MB-468 breast): 1.53 µM
- TGI (MDA-MB-468 breast): 2.87 µM
- GI50 (SN12C renal): 1.81 µM
- TGI (SN12C renal): 3.46 µM
- GI50 (NCI-H522 lung): 1.5 µM
- TGI (NCI-H522 lung): 2.84 µM
- GI50 (HCC-2998 colon): 14.1 µM
- TGI (HCC-2998 colon): 27.2 µM
- GI50 (TK-10 renal): 1.58 µM
- TGI (TK-10 renal): 2.93 µM
- GI50 (HOP-62 NSCLC): 3.33 µM
- TGI (HOP-62 NSCLC): 11.3 µM
- GI50 (ACHN renal): 1.38 µM
- TGI (ACHN renal): 2.68 µM
- GI50 (BT-549 breast): 1.56 µM
- TGI (BT-549 breast): 2.91 µM
- GI50 (LOX IMVI melanoma): 0.0967 µM
- TGI (LOX IMVI melanoma): 17.4 µM
- GI50 (M14 melanoma): 1.89 µM
- TGI (M14 melanoma): 3.39 µM
- GI50 (KM12 colon): 13.7 µM
- TGI (KM12 colon): 26.8 µM
- GI50 (HCT-116 colon): 1.62 µM
- TGI (HCT-116 colon): 3.01 µM
- GI50 (MCF7 breast): 1.39 µM
- TGI (MCF7 breast): 2.72 µM
- GI50 (SK-OV-3 ovarian): 13.2 µM
- TGI (SK-OV-3 ovarian): 26.1 µM
- GI50 (OVCAR-3 ovarian): 1.6 µM
- TGI (OVCAR-3 ovarian): 2.95 µM
- GI50 (SF-268 CNS): 13.9 µM
- TGI (SF-268 CNS): 27 µM
- GI50 (NCI-H460 NSCLC): 14 µM
- TGI (NCI-H460 NSCLC): 27.2 µM
- GI50 (U251 glioblastoma): 16.2 µM
- TGI (U251 glioblastoma): 30 µM
- GI50 (SK-MEL-5 melanoma): 2.31 µM
- TGI (SK-MEL-5 melanoma): 9.5 µM
- GI50 (A498 renal): 17.7 µM
- TGI (A498 renal): 31.6 µM
- GI50 (NCI-H322M lung): 16.3 µM
- TGI (NCI-H322M lung): 30 µM
- GI50 (RXF 393 renal): 1.63 µM
- TGI (RXF 393 renal): 3 µM
- GI50 (HT29 colon): 2.78 µM
- TGI (HT29 colon): 8.03 µM
- GI50 (NCI-H23 lung): 1.76 µM
- TGI (NCI-H23 lung): 3.92 µM
- GI50 (UACC-62 melanoma): 1.37 µM
- TGI (UACC-62 melanoma): 2.85 µM
- GI50 (SW-620 colon): 1.63 µM
- TGI (SW-620 colon): 3.02 µM
- GI50 (PC-3 prostate): 1.73 µM
- TGI (PC-3 prostate): 3.59 µM
- GI50 (NCI-H226 lung): 1.41 µM
- TGI (NCI-H226 lung): 2.77 µM
- GI50 (MALME-3M melanoma): 1.76 µM
- TGI (MALME-3M melanoma): 3.15 µM
- GI50 (RPMI-8226 leukemia): 1.55 µM
- TGI (RPMI-8226 leukemia): 2.9 µM
- GI50 (HL-60(TB) leukemia): 0.243 µM
- TGI (HL-60(TB) leukemia): 0.743 µM
- GI50 (CAKI-1 renal): 1.66 µM
- TGI (CAKI-1 renal): 3.03 µM
- GI50 (OVCAR-4 ovarian): 1.21 µM
- TGI (OVCAR-4 ovarian): 2.46 µM
- GI50 (UACC-257 melanoma): 1.94 µM
- TGI (UACC-257 melanoma): 3.36 µM
- GI50 (MOLT-4 leukemia): 1.36 µM
- TGI (MOLT-4 leukemia): 2.65 µM
- GI50 (NCI/ADR-RES ovarian): 11.2 µM
- TGI (NCI/ADR-RES ovarian): 23.3 µM
- GI50 (SF-295 CNS): 15.2 µM
- TGI (SF-295 CNS): 28.5 µM
- GI50 (MDA-MB-435 melanoma): 1.83 µM
- TGI (MDA-MB-435 melanoma): 3.4 µM
- GI50 (IGROV1 ovarian): 1.33 µM
- TGI (IGROV1 ovarian): 4.33 µM
- GI50 (SF-539 CNS): 1.69 µM
- TGI (SF-539 CNS): 3.08 µM
- GI50 (DU-145 prostate): 1.15 µM
- TGI (DU-145 prostate): 2.55 µM
- GI50 (SK-MEL-2 melanoma): 1.91 µM
- TGI (SK-MEL-2 melanoma): 3.32 µM
- GI50 (HS 578T breast): 12.7 µM
- TGI (HS 578T breast): 25.3 µM
- GI50 (COLO 205 colon): 1.84 µM
- TGI (COLO 205 colon): 3.26 µM
- GI50 (786-0 renal): 1.87 µM
- TGI (786-0 renal): 4.85 µM
- GI50 (HOP-92 NSCLC): 1.64 µM
- TGI (HOP-92 NSCLC): 3 µM
- GI50 (OVCAR-8 ovarian): 1.67 µM
- TGI (OVCAR-8 ovarian): 3.07 µM
- GI50 (SNB-19 CNS): 14.1 µM
- TGI (SNB-19 CNS): 27.2 µM
- GI50 (EKVX NSCLC): 7.02 µM
- TGI (EKVX NSCLC): 20.4 µM
- GI50 (SK-MEL-28 melanoma): 3.24 µM
- TGI (SK-MEL-28 melanoma): 9.55 µM
- GI50 (HCT-15 colon): 1.42 µM
- TGI (HCT-15 colon): 2.75 µM
- GI50 (SNB-75 CNS): 7.16 µM
- TGI (SNB-75 CNS): 20.5 µM
